Measured values: patent US20130212744A1, “METHOD OF REDUCING INSECT-VECTORED VIRAL INFECTIONS” (priority 2010, published 2013)
Like-named read-outs stand apart in the source and are kept apart here.

Experiments:
Assay type in all cases: in vivo
[1] = system: whitefly Bemisia tabaci adults; experiment: Foliar use field trial on tomato, efficacy on whitefly adults; conditions: Bemisia tabaci, foliar, 100 g ai/hl
Method: (§1) Two studies were carried out in Elhasanya, Egypt in 2009 on tomato plants of the variety Fayrouz with the main goal to measure efficacy on the whitefly Bemisia tabaci. The plot size was 4.8 m^2 and 6 replicates were used in the trial. Products were applied 3 times on young tomato plants at BBCH stages 14, 17 and 51 at spray intervals between 12 and 19 days. The spray volume was at the first application 350 l/ha and later 500 l/ha. The evaluation of this study was done counting the adult whiteflies (Bemisia tabaci) as well as the nymphs and the eggs in each plot. In addition to the direct whitefly effect, visual symptoms of the virus, mainly TYLCV (tomato yellow leaf curl virus) were evaluated also.
(§2) ASM=Acibenzolar-S-methyl. WG 50=Actigard® 50WG, a water-dispersible granule with the active ingredient ASM CYNT=Cyantraniliprole. WG 40=Cyazypyr®, a water dispersable granule with the active ingredient CYNT. Results on whitefly adults. Trial 1

[2] = system: whitefly Bemisia tabaci nymphs; experiment: Foliar use field trial on tomato, efficacy on whitefly nymphs; conditions: Bemisia tabaci, foliar
Method: as §1, §2

[3] = system: whitefly Bemisia tabaci nymphs; experiment: Soil use (drench) field trial on tomato, efficacy on whitefly nymphs; conditions: for Emax at 100 g/ha: 100 g ai/ha; for Emax at 150 g/ha: 150 g ai/ha
Method: as §1, with “Two soil applied” for “Two”, “plants” for “plants of the variety Fayrouz”, “Products were applied 3 times on young tomato plants at BBCH stages 14, 17 and 51 at spray intervals between 12 and 19 days.” left out, “350” for “350 l/ha and later 500”

SMILES: CNC(=O)c1cc(C#N)cc(C)c1NC(=O)c1cc(Br)nn1-c1ncccc1Cl [CYNT, 3-bromo-1-(3-chloro-2-pyridyl)-4′-cyano-2′-methyl-6′-(methylcarbamoyl)pyrazole-5-carboxanilide]
- Emax ([1]; 10DAA2, Trial 1, read-out: % Efficacy on Adults): 86%
- Emax ([1]; 10DAA2, Trial 2, read-out: % Efficacy on Adults): 86%
- Emax ([1]; 10DAA3, Trial 1, read-out: % Efficacy on Adults): 86%
- Emax ([1]; 10DAA3, Trial 2, read-out: % Efficacy on Adults): 86%
- Emax ([1]; 15DAA3, Trial 1, read-out: % Efficacy on Adults): 80%
- Emax ([1]; 15DAA3, Trial 2, read-out: % Efficacy on Adults): 80%
- Emax ([1]; 20DAA3, Trial 1, read-out: % Efficacy on Adults): 68%
- Emax ([1]; 20DAA3, Trial 2, read-out: % Efficacy on Adults): 68%
- Emax ([1]; Avg, Trial 1, read-out: % Efficacy on Adults Avg % C): 83%
- Emax ([2]; 75 g ai/hl, 5DAA2, Trial 1, read-out: % Efficacy on Nymphs): 27%
- Emax ([2]; 75 g ai/hl, 5DAA2, Trial 2, read-out: % Efficacy on Nymphs): 27%
- Emax ([2]; 75 g ai/hl, 5DAA3, Trial 1, read-out: % Efficacy on Nymphs): 72%
- Emax ([2]; 75 g ai/hl, 5DAA3, Trial 2, read-out: % Efficacy on Nymphs): 72%
- Emax ([2]; 75 g ai/hl, 10DAA2, Trial 1, read-out: % Efficacy on Nymphs): 48%
- Emax ([2]; 75 g ai/hl, 10DAA2, Trial 2, read-out: % Efficacy on Nymphs): 48%
- Emax ([2]; 75 g ai/hl, 10DAA3, Trial 1, read-out: % Efficacy on Nymphs): 65%
- Emax ([2]; 75 g ai/hl, 10DAA3, Trial 2, read-out: % Efficacy on Nymphs): 65%
- Emax ([2]; 75 g ai/hl, 15DAA3, Trial 1, read-out: % Efficacy on Nymphs): 60%
- Emax ([2]; 75 g ai/hl, 15DAA3, Trial 2, read-out: % Efficacy on Nymphs): 60%
- Emax ([2]; 75 g ai/hl, 20DAA3, Trial 1, read-out: % Efficacy on Nymphs): 48%
- Emax ([2]; 75 g ai/hl, 20DAA3, Trial 2, read-out: % Efficacy on Nymphs): 48%
- Emax ([2]; 75 g ai/hl, Avg, Trial 1, read-out: % Efficacy on Nymphs Avg % C): 53%
- Emax ([2]; 100 g ai/hl, 5DAA2, Trial 1, read-out: % Efficacy on Nymphs): 73%
- Emax ([2]; 100 g ai/hl, 5DAA2, Trial 2, read-out: % Efficacy on Nymphs): 73%
- Emax ([2]; 100 g ai/hl, 5DAA3, Trial 1, read-out: % Efficacy on Nymphs): 84%
- Emax ([2]; 100 g ai/hl, 5DAA3, Trial 2, read-out: % Efficacy on Nymphs): 84%
- Emax ([2]; 100 g ai/hl, 10DAA2, Trial 1, read-out: % Efficacy on Nymphs): 73%
- Emax ([2]; 100 g ai/hl, 10DAA2, Trial 2, read-out: % Efficacy on Nymphs): 73%
- Emax ([2]; 100 g ai/hl, 10DAA3, Trial 1, read-out: % Efficacy on Nymphs): 78%
- Emax ([2]; 100 g ai/hl, 10DAA3, Trial 2, read-out: % Efficacy on Nymphs): 78%
- Emax ([2]; 100 g ai/hl, 15DAA3, Trial 1, read-out: % Efficacy on Nymphs): 68%
- Emax ([2]; 100 g ai/hl, 15DAA3, Trial 2, read-out: % Efficacy on Nymphs): 68%
- Emax ([2]; 100 g ai/hl, 20DAA3, Trial 1, read-out: % Efficacy on Nymphs): 56%
- Emax ([2]; 100 g ai/hl, 20DAA3, Trial 2, read-out: % Efficacy on Nymphs): 56%
- Emax ([2]; 100 g ai/hl, Avg, Trial 1, read-out: % Efficacy on Nymphs Avg % C): 72%
- Emax at 100 g/ha ([3]; 25DAA1, Trial 2): 60%
- Emax at 100 g/ha ([3]; 30DAA1, Trial 2): 34%
- Emax at 100 g/ha ([3]; 35DAA1, Trial 2): 63%
- Emax at 100 g/ha ([3]; 40DAA2, Trial 2): 52%
- Emax at 150 g/ha ([3]; 25DAA1, Trial 2): 78%
- Emax at 150 g/ha ([3]; 30DAA1, Trial 2): 79%
- Emax at 150 g/ha ([3]; 35DAA1, Trial 2): 77%
- Emax at 150 g/ha ([3]; 40DAA2, Trial 2): 61%
- Emax at 100 g/ha ([3]; 240 h, 10DAA, Trial 1): 67%
- Emax at 150 g/ha ([3]; 240 h, 10DAA, Trial 1): 69%
- Emax at 100 g/ha ([3]; 360 h, 15DAA, Trial 1): 65%
- Emax at 150 g/ha ([3]; 360 h, 15DAA, Trial 1): 84%
- Emax at 100 g/ha ([3]; 480 h, 20DAA, Trial 1): 59%
- Emax at 150 g/ha ([3]; 480 h, 20DAA, Trial 1): 84%
- Emax at 100 g/ha ([3]; 600 h, 25DAA, Trial 1): 39%
- Emax at 150 g/ha ([3]; 600 h, 25DAA, Trial 1): 77%
- Emax at 100 g/ha ([3]; 720 h, 30DAA, Trial 1): 28%
- Emax at 150 g/ha ([3]; 720 h, 30DAA, Trial 1): 74%
- Emax at 100 g/ha ([3]; 840 h, 35DAA, Trial 1): 24%
- Emax at 150 g/ha ([3]; 840 h, 35DAA, Trial 1): 70%
- Emax at 100 g/ha ([3]; 960 h, 40DAA, Trial 1): 13%
- Emax at 150 g/ha ([3]; 960 h, 40DAA, Trial 1): 64%
